Assay results: US9624269B2, “Peptide inhibitors of BACE1” (GENENTECH, INC., priority 2011, dated 2017)
Positions of bridges follow the written chain, without caps; N, C: chain ends. Residues, ends and D or L forms follow the SMILES beside them.

What was measured:
[1] = target: T1, Cathepsin D (Homo sapiens, UniProt P07339); test: Cathepsin D activity assay (microfluidic capillary electrophoresis); type: biochemical; details: 6 nM Cathepsin D
T1 construct: purchased EMD Biosciences, San Diego, Calif; 219394
Procedure: (§1) BACE1, BACE2 and Cathepsin D Activity Assay Using Microfluidic Capillary Electrophoresis (MCE).
(§2) BACE1, BACE2, and Cathepsin D reactions were carried out in a final volume of 20 μl per well in a 384-well microplate using a Caliper LabChip 3000 (Hopkinton, Mass.). A standard enzymatic reaction, initiated by the addition of 10 μ12× substrate to 5 μl of 4× enzyme and 5 μl of 4× peptide or small molecule inhibitor, contained 12 nM rhBACE1, 1 μM FAM-[…]-amide (SEQ ID NO: 20), 50 mM NaOAc, pH 4.4, 0.1% CHAPS. The same reaction conditions were used for rhBACE2 (5 nM) and Cathepsin D (6 nM) (Cat. No. 219394; EMD Biosciences, San Diego, Calif.). After incubation for 60 min at room temperature, the product and substrate in each reaction were separated using a 12-sipper microfluidic chip. Separation of product and substrate was optimized by choosing voltages and pressure using the Caliper Optimizer software. The separation buffer contained 100 mM HEPES, pH 7.2, 0.015% Brij-35, 0.1% Coating Reagent #3, 10 mM EDTA and 5% DMSO. The separation conditions used a downstream voltage of −500 V, an upstream voltage of −2250 V, and a screening pressure of −1.2 psi. The product and substrate fluorescence was excited at 488 nm and detected at 530 nm. Substrate conversion was calculated from the electrophoregram using the Caliper HTS Well Analyzer software.

[2] = target: human BACE1 (rhBACE1) (Homo sapiens, UniProt P56817); test: Caliper BACE1 activity assay (microfluidic capillary electrophoresis); type: biochemical; set-up: containing human BACE1 (extracellular domain)
Procedure: An MCE assay reactions can be carried out in a standard enzymatic reaction, initiated by the addition of substrate to enzyme and 4× compound, containing human BACE1 (extracellular domain), amyloid precursor protein beta secretase active site peptide (FAM-[…]-CONH2 (SEQ ID NO: 20)), 50 mM NaOAc pH 4.4 and 0.1% CHAPS. After incubation for 60 minutes at ambient temperature, the product and substrate in each reaction is separated using a 12-sipper microfluidic chip analyzed on an LC3000® (both, Caliper Life Sciences). The separation of product and substrate is optimized by choosing voltages and pressure using the manufacturer's optimization software. Substrate conversion is calculated from the electrophoregram using HTS Well Analyzer software (Caliper Life Sciences).
as §1, §2

[3] = system: Aβ1-40 production in 293-hAPP cells; test: Aβ1-40 assay in 293-hAPP cells; type: cell-based, human; details: 293-HEK cells stably transfected with APP, 24 h
Procedure: Aβ1-40 Assay in 293-hAPP Cells.
Aβ1-40 production was measured in 293-HEK cells stably expressing wild-type human APP(695) complementary DNA (cDNA) (293-hAPP). Cells were seeded overnight at 3×10^4 cells per well in a 96-well plate. Fresh media [Dulbecco's modified Eagle's medium (DMEM)+10% fetal bovine serum (FBS)] containing various inhibitors were incubated with the 293-hAPP cells for 24 h. The cellular medium was harvested and assayed for the presence of Aβ1-40 with an Aβ1-40 HTRF assay (CisBio) according to the manufacturer's instructions. Aβ1-40 values were normalized for cell viability, as determined with the CellTiter-Glo Luminescent Cell Viability Assay (Promega). Experiments were performed at least 3 times, and each point in each experiment was repeated in duplicate. Data was plotted with a 4-parameter nonlinear regression curve-fitting program (KaleidaGraph, Synergy Software).

[4] = target: rhBACE2 (Homo sapiens, UniProt Q9Y5Z0); test: BACE2 activity assay (microfluidic capillary electrophoresis); type: biochemical; details: 5 nM rhBACE2
Procedure: as §1, §2

Chain of human BACE1 (rhBACE1) (P56817 46-457 limits assumed): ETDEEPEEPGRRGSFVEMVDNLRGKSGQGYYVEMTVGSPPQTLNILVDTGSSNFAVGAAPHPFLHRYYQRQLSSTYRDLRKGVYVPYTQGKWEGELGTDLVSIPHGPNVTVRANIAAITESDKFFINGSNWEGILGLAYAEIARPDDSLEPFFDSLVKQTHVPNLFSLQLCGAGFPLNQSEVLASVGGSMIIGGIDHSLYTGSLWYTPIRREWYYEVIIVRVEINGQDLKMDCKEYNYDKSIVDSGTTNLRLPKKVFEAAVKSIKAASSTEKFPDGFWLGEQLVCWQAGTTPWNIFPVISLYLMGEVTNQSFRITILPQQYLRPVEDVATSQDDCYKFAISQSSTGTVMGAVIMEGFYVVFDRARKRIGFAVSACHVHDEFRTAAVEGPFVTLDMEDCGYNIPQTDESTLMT
T1 sequence (P07339 65-412, species assumed): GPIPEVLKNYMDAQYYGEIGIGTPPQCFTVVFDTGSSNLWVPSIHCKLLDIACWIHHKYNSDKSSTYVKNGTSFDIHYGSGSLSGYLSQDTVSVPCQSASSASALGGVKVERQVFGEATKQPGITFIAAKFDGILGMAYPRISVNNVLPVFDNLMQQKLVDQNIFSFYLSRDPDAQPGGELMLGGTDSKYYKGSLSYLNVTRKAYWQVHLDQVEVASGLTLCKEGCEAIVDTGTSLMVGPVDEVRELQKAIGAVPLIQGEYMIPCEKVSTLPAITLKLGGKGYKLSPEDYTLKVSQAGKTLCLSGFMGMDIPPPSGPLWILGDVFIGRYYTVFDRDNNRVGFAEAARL
Chain of rhBACE2 (Q9Y5Z0 63-518): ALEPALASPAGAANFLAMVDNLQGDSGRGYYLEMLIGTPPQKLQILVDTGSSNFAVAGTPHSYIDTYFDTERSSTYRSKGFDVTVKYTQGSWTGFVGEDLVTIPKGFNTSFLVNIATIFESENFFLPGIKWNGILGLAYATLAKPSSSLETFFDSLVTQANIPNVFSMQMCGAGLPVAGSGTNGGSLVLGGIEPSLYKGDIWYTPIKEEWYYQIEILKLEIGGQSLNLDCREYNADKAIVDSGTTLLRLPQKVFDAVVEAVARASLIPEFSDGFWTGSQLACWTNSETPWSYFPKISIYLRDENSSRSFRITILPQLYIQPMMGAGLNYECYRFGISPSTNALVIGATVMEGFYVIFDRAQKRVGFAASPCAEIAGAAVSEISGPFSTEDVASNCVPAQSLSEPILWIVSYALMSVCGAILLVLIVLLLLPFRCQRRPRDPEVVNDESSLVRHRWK

- Inhibition of Cathepsin D [1]: no inhibition
- IC50 ([2]; 12 nM rhBACE1, 1 μM FAM-substrate, pH 4.4): 18 ± 7 nM
- peptide activity (in words) ([2]; competition binding and enzymatic assays): full activity
- Inhibition of BACE2 [4]: no inhibition
SMILES: CC[C@H](C)[C@@H]1NC(=O)CNC(=O)[C@H](CC(C)C)NC(=O)[C@H](CC(C)C)NC(=O)[C@H](CCCNC(=N)N)NC(=O)[C@@H](NC(=O)[C@H](Cc2ccc(O)cc2)NC(=O)[C@H](CCSC)NC(=O)[C@H](CO)NC(=O)[C@H](CCC(=O)O)NC(C)=O)CSSC[C@@H](C(=O)NCC(N)=O)NC(=O)CNC1=O [BACE030] (Ac-ESMYCRLLGIGCG-NH2; disulfide 5-12)
- Inhibition of Aβ production in cells (in words) [3]: potent inhibition
